Where “and” joins values, the source holds several entries; their conditions need not be identical. Equal values may be shown once. Read-outs that look alike come from different tables or passages of the source.
What was measured:
[1] = Lung tissue distribution after a single oral dose to rats; assay type: in vivo; conditions: Sprague-Dawley, rat, p.o., 10 mg/kg
Procedure: Taking into account both the encouraging results in rescuing the gating defect in mutant CFTR in both primary and secondary biological assays, and the promising in vivo PK profile, we quantified the amount of compound 39 in rat lung tissue, the main target organ for CF treatment. The lung tissue distribution of potentiator 39 was investigated following administration of a single oral dose of 10 mg/kg to Sprague–Dawley rats. Supported by the data obtained in the pharmacokinetic study after oral administration, two time points (2 and 4 h) were selected for collecting plasma and lung tissue samples. The mean concentration vs. time profiles of compound 39 in plasma and lung tissue are reported in Figure S2 (see the Supporting Information).
Three animals per dose and timing were treated. Compound 39 was dissolved in PEG400/Tween80/saline solution at 10/10/80% in volume and administered orally at a dose of 10 mg/kg. After 120 and 240 min, rats were sacrificed and lungs were immediately dissected, frozen on dry ice, and stored at −80 °C until analysis. Lung samples were homogenized in RIPA buffer (150 mM NaCl, 1.0% Triton X-100, 0.5% sodium deoxycholate, 0.1% sodium dodecyl sulfate, 50 mM Tris, and pH 8.0) and then split into two aliquots kept at −80 °C until analysis. An aliquot was used for compound lung-level evaluations. The second aliquot was kept for protein content evaluation using the bicinchoninic acid assay (Thermo Scientific, Rockford, IL, USA).
Plasma samples were centrifuged at 21,100g for 15 min at 4 °C, while homogenized lung samples were vigorously whirled. An aliquot of each sample was extracted (1:3) with cold CH3CN containing 200 nM of an appropriate internal standard being a close analogue of the parent compound. A calibration curve was prepared in both blank mouse plasma and naïve lung homogenate over a 1 nM to 10 μM range. Three quality controls were prepared by spiking the parent compound in both blank mouse plasma and naïve lung homogenate to 20, 200, and 2000 nM as final concentrations. The calibrators and quality controls were extracted (1:3) with the same extraction solution as the plasma and lung samples. The plasma and lung samples, the calibrators, and quality controls were centrifuged at 3270g for 15 min at 4 °C. The supernatants were further diluted (1:1) with H2O and analyzed by LC/MS–MS on a Waters ACQUITY UPLC/MS TQD system consisting of a TQD mass spectrometer equipped with an electrospray ionization interface and a photodiode array eλ detector. Electrospray ionization was applied in the positive mode. […] All samples (plasma and lung samples, calibrators, and quality controls) were quantified by MRM peak area response factor in order to determine the levels of the parent compound in plasma and lung. […]

[2] = Pharmacokinetics after i.v. and p.o. administration to rats; assay type: in vivo, Sprague–Dawley rats; conditions: for half-life at 4 h: read-out: half-life (min) (elimination phase)
Procedure: Based on both its biological profile, showing a good efficacy in primary and secondary assays, and preliminary in vitro ADME properties, potentiator 39 was further evaluated in in vivo studies. […]
Male Sprague–Dawley rats, 2 month old and weighing 175–200 g (Charles River, Calco, Italy), were used. Animals were group-housed in ventilated cages and had free access to food and water. They were maintained under a 12 h light/dark cycle (lights on at 8:00 am) at a controlled temperature (21 ± 1 °C) and relative humidity (55 ± 10%). All experiments were carried out in accordance with the guidelines established by the European Communities Council Directive (Directive 2010/63/EU of September 22, 2010) and approved by the National Council on Animal Care of the Italian Ministry of Health. All efforts were made to minimize animal suffering and to use the minimal number of animals required to produce reliable results.
[…] PEG400/Tween 80/saline solution was used as a vehicle at 10/10/80% in volume, respectively. Three animals per dose were treated. Blood samples at 0, 15, 30, 60, 90, 120, 240, and 360 min after administration were collected for p.o. arm. Blood samples at 0, 5, 15, 30, 60, 90, 120, and 240 min after administration were collected for i.v. arm. Plasma was separated from blood by centrifugation for 15 min at 3500 rpm at 4 °C, collected in an Eppendorf tube, and frozen (−80 °C). Control animals treated with vehicle only were also included in the experimental protocol.
Plasma samples were centrifuged at 21,100g for 15 min at 4 °C, while homogenized lung samples were vigorously whirled. An aliquot of each sample was extracted (1:3) with cold CH3CN containing 200 nM of an appropriate internal standard being a close analogue of the parent compound. A calibration curve was prepared in both blank mouse plasma and naïve lung homogenate over a 1 nM to 10 μM range. Three quality controls were prepared by spiking the parent compound in both blank mouse plasma and naïve lung homogenate to 20, 200, and 2000 nM as final concentrations. The calibrators and quality controls were extracted (1:3) with the same extraction solution as the plasma and lung samples. The plasma and lung samples, the calibrators, and quality controls were centrifuged at 3270g for 15 min at 4 °C. The supernatants were further diluted (1:1) with H2O and analyzed by LC/MS–MS on a Waters ACQUITY UPLC/MS TQD system consisting of a TQD mass spectrometer equipped with an electrospray ionization interface and a photodiode array eλ detector. Electrospray ionization was applied in the positive mode. Compound-dependent parameters such as MRM transitions and collision energy were developed for the parent compound and the internal standard. The mobile phase was H2O + 0.1% HCOOH (A) and CH3CN + 0.1% HCOOH (B) at a flow rate of 0.5 mL/min. For plasma samples, the analyses were run on an ACQUITY UPLC BEH C18 (50 × 2.1 mm ID, particle size 1.7 μm) with a VanGuard BEH C18 precolumn (5 × 2.1 mm ID, particle size 1.7 μm) at 40 °C. A linear gradient was applied starting at 30% B with an initial hold for 0.2 min and then 30–100% B in 2 min. For lung samples, the analyses were run on an ACQUITY UPLC BEH C18 (100 × 2.1 mm ID, particle size 1.7 μm) with a VanGuard BEH C18 precolumn (5 × 2.1 mm ID, particle size 1.7 μm) at 40 °C. A linear gradient was applied starting at 30% B with an initial hold for 0.2 min and then 30–100% B in 6 min. All samples (plasma and lung samples, calibrators, and quality controls) were quantified by MRM peak area response factor in order to determine the levels of the parent compound in plasma and lung. The concentrations versus time data were plotted and the profiles were fitted using PK Solutions Excel Application (Summit Research Service, USA) in order to determine the pharmacokinetic parameters.

[3] = lung, read-out: concentration in the lungs
[4] = male, Sprague-Dawley, rat, iv, 3 mg/kg, plasma
[5] = male, Sprague-Dawley, rat, plasma, iv, 3 mg/kg
[6] = male, Sprague-Dawley, rat, plasma, po, 10 mg/kg
[7] = male, Sprague-Dawley, rat, po, 10 mg/kg, plasma

## Cc1ccc(F)c2[nH]c3c(c12)CN(C(=O)c1cc(C(F)(F)F)[nH]n1)[C@H](C)C3 [Compound 39, (R)-(6-Fluoro-3,9-dimethyl-1,3,4,5-tetrahydro-2H-pyrido[4,3-b]indol-2-yl)-(5-(trifluoromethyl)-1H-pyrazol-3-yl)methanone]
[1]; [3]
  concentration at 2 h: 4500 ng/g
  concentration at 4 h: 2200 ng/g
[1]; plasma, read-out: plasma level
  concentration at 2 h: 1030 ng/mL
  concentration at 4 h: 675 ng/mL
[2]; [4]
  Cmax: 2790 ng/mL
  Cmax at 4 h: 7.3 µM
[2]; [5]
  AUC: 2320 ng·h/mL and 6.1 µM·h
  Tmax at 4 h: 5 min
  Vd at 4 h: 2.39 L/kg
  clearance at 4 h: 19 mL/min/kg
  half-life at 4 h: 89 min
[2]; male, Sprague-Dawley, rat, plasma, oral, p.o. 10 mg/kg versus i.v. 3 mg/kg, time interval 0–4 h
  bioavailability: ~30%
[2]; [6]
  AUC: 2330 ng·h/mL
  half-life at 4 h: 212 min
[2]; male, Sprague-Dawley, rat, plasma, po, 10 mg/kg, read-out: plasma level at 6 h postadministration
  concentration at 6 h: > 450 ng/mL and ~1.2 µM
[2]; male, Sprague-Dawley, rat, plasma, po, 10 mg/kg, read-out: time of maximal plasma concentration
  Tmax: 2 h
[2]; male, Sprague-Dawley, rat, plasma, po, 10 mg/kg, time interval 0–4 h
  AUC: 6.1 µM·h
[2]; male, Sprague-Dawley, rat, plasma, po, p.o. 10 mg/kg versus i.v. 3 mg/kg, time interval 0–4 h
  bioavailability at 4 h: 30%
[2]; [7]
  Cmax: 769 ng/mL
  Cmax at 4 h: 2 µM
[2]; p.o., 10 mg/kg
  Tmax: 2 h

From paper PMC8011931, “Identification, Structure–Activity Relationship, and Biological Characterization of 2,3,4,5-Tetrahydro-1H-pyrido[4,3-b]indoles as a Novel Class of CFTR Potentiators” (Journal of Medicinal Chemistry, 2020)
